# In US20230355597A1, “COMPOUNDS, COMPOSITIONS, AND METHODS FOR THE TREATMENT AND PREVENTION OF AVIAN PATHOGENIC E. COLI (APEC)” (OHIO STATE INNOVATION FOUNDATION, priority 2018, published 2023):
# Marks after values point to notes of the source that are not given here.
# Tests used:
# [1] = system: Rif^r APEC O78; assay: Wax moth (Galleria mellonella) larva infection model (AI-2 inhibitors); details: 48 h post treatment
# [2] = system: AI-2 activity of APEC O1; assay: AI-2 bioluminescence indicator assay (V. harveyi BB170); details: Escherichia coli, read-out: Inhibition % of AI-2 activity, APEC O1, 100 µM
# [3] = system: AI-2 activity of APEC O8; assay: as above; details: Escherichia coli, read-out: Inhibition % of AI-2 activity, APEC O8, 100 µM
# [4] = system: Caco-2 cells; assay: LDH assay of AI-2 inhibitors; details: Caco-2, 100 µM, 24 h
# [5] = system: QS and virulence associated genes of APEC O78; assay: qRT-PCR of QS-regulated and virulence factors genes; format: cell-based, avian pathogenic Escherichia coli (APEC); details: 100 µM, 10 h
# Protocol: Quantitative real-time reverse transcription PCR (qRT-PCR). […] APEC O78 was grown in the presence of 100 µM of each compound in a 96-well plate at 37° C. for 10 h. APEC O78 culture treated with 1 µL of 100% DMSO was used as […]. Total RNA was extracted from duplicate wells for each compound (200 µL) using a miRNeasy Mini Kit (Qiagen). RNA quality and quantity was determined by nanodrop 2000 C spectrophotometer (Thermo scientific). Traces of DNA was removed using Genomic DNA removal mix (Qiagen). Approximately, 5 µg of purified RNA was used to synthesize cDNA using the Qiagen RT^2 First Strand Kit (Qiagen). The qRT-PCR was performed using SensiMix™ SYBER® Hi-Rox qPCR Master Mix (Bioline) according to manufacturer instructions in a realplex^2 mastercycler (Eppendorf) with 55° C. annealing temperature. Gene-specific primers were designed using PrimerQuest Tool and obtained from integrated DNA technologies (IDT). The data were normalized to the house-keeping gene, glyceraldehyde-3-phosphate dehydrogenase (GAPDH). The relative fold change was calculated using the ΔΔCt method. Three independent experiments were conducted.
# [6] = system: APEC O2 in HD-11 cells; assay: Intracellular survival assay (AI-2 inhibitors); details: O2, HD-11, 100 µM, 6 h
# [7] = system: AI-2 activity of APEC O109; assay: AI-2 bioluminescence indicator assay (V. harveyi BB170); details: Escherichia coli, read-out: Inhibition % of AI-2 activity
# [8] = system: AI-2 activity of APEC O2; assay: as above; details: Escherichia coli, read-out: Inhibition % of AI-2 activity
# [9] = system: AI-2 activity of APEC O18; assay: as above; details: Escherichia coli, read-out: Inhibition % of AI-2 activity, APEC O18, 100 µM
# [10] = system: AI-2 activity of APEC O78; assay: as above; details: Escherichia coli, read-out: Inhibition % of AI-2 activity
# [11] = system: Rif^r APEC O78; assay: In vivo screening of quorum sensing inhibitors in APEC infected broiler chickens
# [12] = system: APEC O2-211; format: cell-based, avian pathogenic Escherichia coli (APEC); details: APEC O2-211, M63 media; MIC/MBC
# [13] = system: intracellular APEC O1 in HD11 cells; assay: Intracellular survival assay (cidal SMs); details: O1, HD11, 6 h treatment; superscript = multiple of MIC
# [14] = system: APEC O1; format: cell-based, avian pathogenic Escherichia coli (APEC); details: APEC O1, M63 media; MIC/MBC
# [15] = system: biofilm embedded APEC O78; assay: MBEC High-throughput assay; format: cell-based, avian pathogenic Escherichia coli (APEC)
# [16] = system: APEC O18; format: cell-based, avian pathogenic Escherichia coli (APEC); details: APEC O18, M63 media; MIC/MBC
# [17] = system: Rif^r APEC O78; assay: In vivo efficacy of growth inhibitors in APEC infected broiler chickens
# [18] = system: APEC O78; assay: Confocal microscopy bacterial cytological profiling; format: cell-based, avian pathogenic Escherichia coli (APEC); details: 2X MBC
# Protocol: Confocal and scanning electron microscopy. Confocal microscopy was used for bacterial cytological profiling (BCP) to identify the cellular pathways targeted by SMs as described previously. […] After incubation, treated cultures were centrifuged, washed, and resuspended in 100 μL PBS. […] Cultures were then centrifuged, washed, and resuspended in PBS to 1⁄10th volume of the original cultures.
# [19] = system: APEC O8; format: cell-based, avian pathogenic Escherichia coli (APEC); details: APEC O8, M63 media; MIC/MBC
# [20] = system: intracellular APEC O2 in Caco-2 cells; assay: Intracellular survival assay (cidal SMs); details: O2, Caco-2, 6 h treatment; superscript = multiple of MIC
# [21] = system: APEC O1-63; format: cell-based, avian pathogenic Escherichia coli (APEC); details: APEC O1-63, M63 media; MIC/MBC
# [22] = system: APEC O35; format: cell-based, avian pathogenic Escherichia coli (APEC); details: APEC O35, M63 media; MIC/MBC
# [23] = system: intracellular APEC O1 in Caco-2 cells; assay: Intracellular survival assay (cidal SMs); details: O1, Caco-2, 6 h treatment; superscript = multiple of MIC
# [24] = system: intracellular APEC O1 in THP-1 cells; assay: Intracellular survival assay (cidal SMs); details: O1, THP-1, 6 h treatment; superscript = multiple of MIC
# [25] = system: intracellular APEC O78, O2, and O1 in infected Caco-2, HD11, and THP1 cells; assay: Intracellular survival assay (cidal SMs), summary over serotypes and cells; details: overall ranking
# [26] = system: APEC O15; format: cell-based, avian pathogenic Escherichia coli (APEC); details: APEC O15, M63 media; MIC/MBC
# [27] = system: APEC O78-53; format: cell-based, avian pathogenic Escherichia coli (APEC); details: APEC O78-53, M63 media; MIC/MBC
# [28] = system: intracellular APEC O2 in THP-1 cells; assay: Intracellular survival assay (cidal SMs); details: O2, THP-1, 6 h treatment; superscript = multiple of MIC
# [29] = system: intracellular APEC O78 in HD11 cells; assay: Intracellular survival assay (cidal SMs); details: O78, HD11, 6 h treatment; superscript = multiple of MIC
# [30] = system: APEC O78; assay: Loss of 260/280 nm absorbing materials assay; format: cell-based, avian pathogenic Escherichia coli (APEC); details: 2X MBC, 1 h, *P<0.05 vs DMSO
# [31] = system: APEC O115; format: cell-based, avian pathogenic Escherichia coli (APEC); details: APEC O115, M63 media; MIC/MBC
# [32] = system: intracellular APEC O78 in Caco-2 cells; assay: Intracellular survival assay (cidal SMs); details: O78, Caco-2, 6 h treatment; superscript = multiple of MIC
# [33] = system: intracellular APEC O2 in HD11 cells; assay: Intracellular survival assay (cidal SMs); details: O2, HD11, 6 h treatment; superscript = multiple of MIC
# [34] = system: APEC O109; format: cell-based, avian pathogenic Escherichia coli (APEC); details: APEC O109, M63 media; MIC/MBC
# [35] = system: APEC O2; format: cell-based, avian pathogenic Escherichia coli (APEC); details: APEC O2, M63 media; MIC/MBC
# [36] = system: intracellular APEC O78 in THP-1 cells; assay: Intracellular survival assay (cidal SMs); details: O78, THP-1, 6 h treatment; superscript = multiple of MIC
# [37] = system: APEC O78; format: cell-based, avian pathogenic Escherichia coli (APEC); details: APEC O78, M63 media; cell prints MIC/MBC
compound,measurement,setting,value
"O=[N+]([O-])c1cccc(S(=O)(=O)Nc2ccc(Br)cc2)c1 [C6, N-(4-bromophenyl)-3-nitrobenzenesulfonamide]",larval death,[1],no larval death
same,inhibition at 100 µM,[2],≥ 75%
same,inhibition at 100 µM,[3],≥ 75%
same,toxicity (LDH),[4],27%
same,expression of cheW,[5],down-regulated
same,expression of csrA,[5],down-regulated
same,expression of fliP,[5],down-regulated
same,expression of fpr,[5],down-regulated
same,expression of murD,[5],down-regulated
same,clearance of intracellular APEC,[6],100%
same,reduction of intracellular survival,[6]; vs DMSO,3.3 logs
same,inhibition at 100 µM,[7],60%
same,inhibition at 100 µM,[8],93%
same,inhibition at 100 µM,[9],≥ 75%
same,inhibition at 100 µM,[10],92%
same,reduction in chicken mortality,[11]; DMSO control mortality normalized to 100%,did not reduce
same,average lesion score reduction,"[11]; liver, heart, lung and airsac, vs DMSO",0.7-1.3
same,Mortality rate (%),"[11]; oral gavage once a day, day 4 to day 8, DMSO control 66.7%",66.7%
same,"Reduction in APEC lesions severity, Air-sacs (%)",[11]; vs DMSO treated control,53.3%
same,"Reduction in APEC lesions severity, Heart (%)",[11]; vs DMSO treated control,43.8%
same,"Reduction in APEC lesions severity, Liver (%)",[11]; vs DMSO treated control,54.5%
same,"Reduction in APEC lesions severity, Lung (%)",[11]; vs DMSO treated control,66.7%
CC(=O)OC(C(Br)C(=O)c1ccc([N+](=O)[O-])cc1)C(Cl)(Cl)Cl (stereo not drawn) [SM10],MBC,[12],50 µM
same,MIC,[12],25 µM
same,SMs intracellular APEC clearance concentration,[13],>100 µM
same,MBC,[14],25 µM
same,MIC,[14],25 µM
same,reduction of biofilms embedded APEC,[15]; at 1X MIC,significantly (P<0.05) reduced
same,MBEC,"[15]; biofilm embedded APEC O78, superscript = multiple of MIC (footnote)",>200 µM
same,MBC,[16],100 µM
same,MIC,[16],25 µM
same,reduction of average APEC load in internal organs,"[17]; average of liver, heart, lung and kidney, vs untreated control",1.3 logs
same,reduction of APEC induced mortality,"[17]; oral gavage twice a day, 5 days, untreated mortality (58.34%) normalized to 100%",71.42%
same,"reduction of APEC lesions severity (%), Air-sacs (airsacculitis)",[17]; untreated control = 100%,-52.9%
same,"reduction of APEC lesions severity (%), Heart (pericarditis)",[17]; untreated control = 100%,-28%
same,"reduction of APEC lesions severity (%), Liver (perihepatitis)",[17]; untreated control = 100%,20%
same,"reduction of APEC lesions severity (%), Lung (lung congestion)",[17]; untreated control = 100%,0%
same,"reduction of APEC load, Heart",[17]; vs untreated control,1.0 log CFU/g of tissues
same,"reduction of APEC load, Kidney",[17]; vs untreated control,2.4 log CFU/g of tissues
same,"reduction of APEC load, Liver",[17]; vs untreated control,0.8 log CFU/g of tissues
same,"reduction of APEC load, Lung",[17]; vs untreated control,1.4 log CFU/g of tissues
same,Body weight gain (BWG),[17]; weight of live chickens before necropsy minus weight before treatment,220.75±38.93
same,"cytological profile (confocal, FM4-64 / SYTO-9)",[18],PG synthesis inhibitors
same,MBC,[19],50 µM
same,MIC,[19],50 µM
same,SMs intracellular APEC clearance concentration,[20],100^c µM
same,MBC,[21],100 µM
same,MIC,[21],50 µM
same,MBC,[22],50 µM
same,MIC,[22],25 µM
same,SMs intracellular APEC clearance concentration,[23],100^c µM
same,SMs intracellular APEC clearance concentration,[24],>100 µM
same,effectiveness in clearing intracellular APEC serotypes in all tested cells,[25],most effective
same,MBC,[26],100 µM
same,MIC,[26],50 µM
same,MBC,[27],50 µM
same,MIC,[27],25 µM
same,SMs intracellular APEC clearance concentration,[28],50^b µM
same,SMs intracellular APEC clearance concentration,[29],50^b µM
same,Absorbance 260,[30]; 260 nm absorbing material in supernatant,3.98*
same,Absorbance 280,[30]; 280 nm absorbing material in supernatant,2.73*
same,MBC,[31],50 µM
same,MIC,[31],25 µM
same,SMs intracellular APEC clearance concentration,[32],100^c µM
same,SMs intracellular APEC clearance concentration,[33],100^c µM
same,MBC,[34],50 µM
same,MIC,[34],25 µM
same,MBC,[35],50 µM
same,MIC,[35],25 µM
same,SMs intracellular APEC clearance concentration,[36],100^c µM
same,MBC,[37],50 µM
same,MIC,[37],25 µM
